Data set [1] deals with fasted Sprague Dawley rats. The data set is described as follows: Blood glucose lowering in fasted rats. The format is in vivo, rat. Particulars: 20 mg/kg intraperitoneally, 18 hours fasted Sprague Dawley rats, one hour post injection. The procedure:
Sprague Dawley rats (250-300 g) were fasted for 18 hours and then dosed intraperitoneally with 20 mg/kg of compounds 12.53, 12.61, or 12.64. The vehicle used for drug administration was 50 mM sodium bicarbonate. Blood samples were obtained from the tail vein of conscious animals just prior to injection and one hour post injection. Blood glucose was measured using a HemoCue Inc. glucose analyzer according to the instructions of the manufacturer.

Data set [2] has as its target T1, human liver FBPase (Homo sapiens, UniProt P09467).
T1 construct: made in house; host or cells: E. coli BL21
T1 sequence (P09467 2-338 limits assumed): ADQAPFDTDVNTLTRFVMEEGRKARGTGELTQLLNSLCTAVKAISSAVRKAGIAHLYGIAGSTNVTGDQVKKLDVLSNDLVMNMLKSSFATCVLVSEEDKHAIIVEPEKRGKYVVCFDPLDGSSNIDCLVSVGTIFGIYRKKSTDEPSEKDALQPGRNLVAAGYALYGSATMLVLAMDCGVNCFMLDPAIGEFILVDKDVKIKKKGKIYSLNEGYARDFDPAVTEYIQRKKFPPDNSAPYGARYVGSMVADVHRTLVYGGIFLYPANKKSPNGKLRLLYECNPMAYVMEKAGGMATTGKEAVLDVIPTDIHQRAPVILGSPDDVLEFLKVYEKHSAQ
Put plainly: Inhibition of human liver FBPase. The format is biochemical. To be noted: result in words.
Description: Enzymatic activity was measured spectrophotometrically in reactions that coupled the formation of product (fructose 6-phosphate) to the reduction of dimethylthiazoldiphenyltetrazolium bromide (MTT) via NADP and phenazine methosulfate (PMS), using phosphoglucose isomerase and glucose 6-phosphate dehydrogenase as the coupling enzymes. Reaction mixtures (200 μl) were made up in 96-well microtitre plates, and consisted of 50 mM Tris-HCl, pH 7.4, 100 mM KCl, 5 mM EGTA, 2 mM MgCl2, 0.2 mM NADP, 1 mg/ml BSA, 1 mM MTT, 0.6 mM PMS, 1 unit/mL phosphoglucose isomerase, 2 units/mL glucose 6-phosphate dehydrogenase, and 0.150 mM substrate (fructose 1,6-bisphosphate). Inhibitor concentrations were varied from 0.01 μM to 10 μM. Reactions were started by the addition of 0.002 units of pure hlFBPase and were monitored for 7 minutes at 590 nm in a Molecular Devices Plate Reader (37° C.).

The subject of data set [3] is rat hepatocytes. Put plainly: Inhibition of gluconeogenesis in rat hepatocytes. The format is cell-based. The procedure: Hepatocytes were prepared from overnight fasted Sprague-Dawley rats (250-300 g) according to the procedure of Berry and Friend (Berry, M. N., Friend, D. S., 1969, J. Cell. Biol. 43, 506-520) as modified by Groen (Groen, A. K., Sips, H. J., Vervoorn, R. C., Tager, J. M., 1982, Eur. J. Biochem. 122, 87-93). Hepatocytes (75 mg wet weight/mL) were incubated in 1 ml Krebs-bicarbonate buffer containing 10 mM Lactate, 1 mM pyruvate, 1 mg/mL BSA, and test compound concentrations from 1 to 500 μM. Incubations were carried out in a 95% oxygen, 5% carbon dioxide atmosphere in closed, 50-mL Falcon tubes submerged in a rapidly shaking water bath (37° C.). After 1 hour, an aliquot (0.25 mL) was removed, transferred to an Eppendorf tube and centrifuged. 50 μL of supernatant was then assayed for glucose content using a Sigma Glucose Oxidase kit as per the manufacturer's instructions.

`CC(C)Cn1c(-c2ccc(P(=O)(O)O)o2)nc2c(N)c(F)ccc21` [Compound 12.53, 4-Amino-5-fluoro-1-isobutyl-2-(2-phosphono-5-furanyl)benzimidazole] registered a melting point of 230 to 235 °C. This compound also showed a blood glucose lowering in data set [1] of 55±14%. Also, the “inhibition of human liver FBPase activity (FIG. 2)” value in data set [2] is “inhibit human liver FBPase activity in vitro in a dose dependent manner”. In data set [3] (Hepatocyte, glucose production from lactate/pyruvate, isolated rat hepatocytes, 1 hour), this compound came in with an IC50 of 2.4 µM. Also, the “inhibition of glucose production in rat hepatocytes (FIG. 4)” value in data set [3] (result in words) is “inhibit glucose production in vitro in rat hepatocytes”.

These data come from patent US6399782B1, “Benzimidazole inhibitors of fructose 1,6-bisphosphatase” (Metabasis Therapeutics, Inc., priority 1997, dated 2002).
